Active and inactive are the calls of the source. The calls are words filed in the database; no cut-off is given here. Where only a bound is given, the exact number is not on record here.

By IC50 is commonly meant the concentration that inhibits the measured activity by half.

For one data set, the system named is HCT-116. The data set is described as follows: Cytotoxicity against human HCT116 cells after 72 hrs by MTT assay. The class given is functional, cell-based. The following applies: HCT-116, 72 h.
The target of data set [1] is T1, DNA topoisomerase 1 (Homo sapiens) (UniProt P11387).
T1 sequence (whole entry): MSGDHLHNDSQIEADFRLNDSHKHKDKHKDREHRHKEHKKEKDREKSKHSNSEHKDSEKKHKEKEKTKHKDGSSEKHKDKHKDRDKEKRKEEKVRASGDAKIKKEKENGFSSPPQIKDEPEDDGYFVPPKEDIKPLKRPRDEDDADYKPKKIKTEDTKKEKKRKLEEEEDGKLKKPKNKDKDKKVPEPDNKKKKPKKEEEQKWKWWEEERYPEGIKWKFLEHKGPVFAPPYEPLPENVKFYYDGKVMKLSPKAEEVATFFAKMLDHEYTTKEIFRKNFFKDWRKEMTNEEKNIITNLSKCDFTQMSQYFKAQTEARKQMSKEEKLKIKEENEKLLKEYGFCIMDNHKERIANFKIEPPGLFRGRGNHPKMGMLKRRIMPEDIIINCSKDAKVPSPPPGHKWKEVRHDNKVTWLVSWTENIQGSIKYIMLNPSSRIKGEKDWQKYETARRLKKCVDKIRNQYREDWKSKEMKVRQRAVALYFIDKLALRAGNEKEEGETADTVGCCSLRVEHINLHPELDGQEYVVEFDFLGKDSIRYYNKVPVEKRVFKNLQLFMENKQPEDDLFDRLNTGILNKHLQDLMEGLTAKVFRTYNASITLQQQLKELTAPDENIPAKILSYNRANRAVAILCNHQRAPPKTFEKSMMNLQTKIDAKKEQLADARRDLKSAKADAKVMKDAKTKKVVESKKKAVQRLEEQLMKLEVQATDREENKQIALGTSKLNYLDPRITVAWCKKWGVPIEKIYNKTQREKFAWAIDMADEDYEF
Briefly: Inhibition of topoisomerase1 (unknown origin)-mediated supercoiled DNA relaxation at 100 uM after 15 mins by SDS-PAGE analysis.

The subject of data set [2] is A549. The data set is described as follows: Cytotoxicity against human A549 cells after 72 hrs by MTT assay. The conditions noted are these: A549, 72 h. The class given is functional, cell-based.
The subject of the next data set is MDA-MB-435. The data set is described as follows: Cytotoxicity against human MDA-MB-435 cells after 72 hrs by MTT assay. The class given is functional, cell-based. The following applies: MDA-MB-435, 72 h. In general terms: Tetrazolium assays rely on reduction of a dye to a coloured formazan, in cell work by metabolically active cells.
Data set [3] is described as follows: Stability of the compound in PBS buffer at pH 7.4 assessed as compound remaining after 6 hrs by HPLC method. The conditions noted are these: read-out: Stability. In kind it is physicochemical.
Data set [4] concerns A549. The data set is described as follows: Antitumor activity against human A549 cells xenografted in BALB/C nude mouse assessed as tumor growth inhibition at 2 mg/kg, ip administered for 5 days measured after day 30 to 33 relative to vehicle-treated control. In kind it is functional. The following applies: route intraperitoneal, read-out: TGI. (In xenograft studies the graft and the host belong to different species.)

Data set [5] deals with A549. Briefly: Cell cycle arrest in human A549 cells assessed as decrease in G0/G1 phase at 10 uM after 36 hrs by propidium iodide staining-based flow cytometry. The class given is functional. (In general: A flow cytometer gives signals particle by particle.)
In data set [6] the test system is A549. The data set is described as follows: Cell cycle arrest in human A549 cells assessed as accumulation at S phase at 10 uM after 36 hrs by propidium iodide staining-based flow cytometry. The class given is functional.
In data set [7] the test system is A549. The data set is described as follows: Antitumor activity against human A549 cells xenografted in ip dosed BALB/C nude mouse assessed as tumor growth inhibition administered for 5 days measured after day 30 to 33 relative to vehicle-treated control. The class given is functional, organism-based.
The target in data set [8] is DNA topoisomerase 2-alpha (Homo sapiens) (UniProt P11388). Briefly: Inhibition of topoisomerase2 alpha (unknown origin)-mediated supercoiled DNA relaxation at 100 uM after 30 mins by SDS-PAGE analysis.
Data set [9] concerns A549. The data set is described as follows: Induction of apoptosis in human A549 cells assessed as apoptotic cells at 0.5 uM after 48 hrs by AnnexinV-FITC/propidium iodide staining-based flow cytometry (reference value: 5.23%). The class given is functional.
Data set [10] has as its target T1, DNA topoisomerase 1 (Homo sapiens). The data set is described as follows: Inhibition of topoisomerase1 (unknown origin)-mediated DNA cleavage at 100 uM after 15 mins by SDS-PAGE analysis.
The next data set relates to Mus musculus. The data set is described as follows: Toxicity in BALB/C nude mouse xenografted with human A549 cells assessed as weight loss at 2 mg/kg, ip after 5 days relative to vehicle-treated control. The class given is organism-based. Also on record: dose 2 mg/kg, route intraperitoneal. The conditions noted are these: in vivo, 120 h.
In data set [11] the test system is A549. Briefly: Antitumor activity against human A549 cells xenografted in BALB/C nude mouse assessed as tumor growth inhibition at 4 mg/kg, ip administered for 5 days measured after day 30 to 33 relative to vehicle-treated control. The conditions noted are these: route intraperitoneal, read-out: TGI. The class given is functional.
The nature of data set [12]: Stability of the compound in PBS buffer at pH 7.4. In kind it is physicochemical.
Data set [13] deals with A549. The data set is described as follows: Induction of apoptosis in human A549 cells assessed as small, round floating cells at 10 uM after 48 hrs by immunostaining relative to control. The class given is functional, cell-based.
Data set [14] relates to A549. The data set is described as follows: Antitumor activity against human A549 cells xenografted in BALB/C nude mouse assessed as tumor growth inhibition at 0.5 mg/kg, ip administered for 5 days measured after day 30 to 33 relative to vehicle-treated control. In kind it is functional, organism-based. Also on record: dose 0.5 mg/kg.

Sequence of DNA topoisomerase 2-alpha (Homo sapiens) (P11388 whole entry): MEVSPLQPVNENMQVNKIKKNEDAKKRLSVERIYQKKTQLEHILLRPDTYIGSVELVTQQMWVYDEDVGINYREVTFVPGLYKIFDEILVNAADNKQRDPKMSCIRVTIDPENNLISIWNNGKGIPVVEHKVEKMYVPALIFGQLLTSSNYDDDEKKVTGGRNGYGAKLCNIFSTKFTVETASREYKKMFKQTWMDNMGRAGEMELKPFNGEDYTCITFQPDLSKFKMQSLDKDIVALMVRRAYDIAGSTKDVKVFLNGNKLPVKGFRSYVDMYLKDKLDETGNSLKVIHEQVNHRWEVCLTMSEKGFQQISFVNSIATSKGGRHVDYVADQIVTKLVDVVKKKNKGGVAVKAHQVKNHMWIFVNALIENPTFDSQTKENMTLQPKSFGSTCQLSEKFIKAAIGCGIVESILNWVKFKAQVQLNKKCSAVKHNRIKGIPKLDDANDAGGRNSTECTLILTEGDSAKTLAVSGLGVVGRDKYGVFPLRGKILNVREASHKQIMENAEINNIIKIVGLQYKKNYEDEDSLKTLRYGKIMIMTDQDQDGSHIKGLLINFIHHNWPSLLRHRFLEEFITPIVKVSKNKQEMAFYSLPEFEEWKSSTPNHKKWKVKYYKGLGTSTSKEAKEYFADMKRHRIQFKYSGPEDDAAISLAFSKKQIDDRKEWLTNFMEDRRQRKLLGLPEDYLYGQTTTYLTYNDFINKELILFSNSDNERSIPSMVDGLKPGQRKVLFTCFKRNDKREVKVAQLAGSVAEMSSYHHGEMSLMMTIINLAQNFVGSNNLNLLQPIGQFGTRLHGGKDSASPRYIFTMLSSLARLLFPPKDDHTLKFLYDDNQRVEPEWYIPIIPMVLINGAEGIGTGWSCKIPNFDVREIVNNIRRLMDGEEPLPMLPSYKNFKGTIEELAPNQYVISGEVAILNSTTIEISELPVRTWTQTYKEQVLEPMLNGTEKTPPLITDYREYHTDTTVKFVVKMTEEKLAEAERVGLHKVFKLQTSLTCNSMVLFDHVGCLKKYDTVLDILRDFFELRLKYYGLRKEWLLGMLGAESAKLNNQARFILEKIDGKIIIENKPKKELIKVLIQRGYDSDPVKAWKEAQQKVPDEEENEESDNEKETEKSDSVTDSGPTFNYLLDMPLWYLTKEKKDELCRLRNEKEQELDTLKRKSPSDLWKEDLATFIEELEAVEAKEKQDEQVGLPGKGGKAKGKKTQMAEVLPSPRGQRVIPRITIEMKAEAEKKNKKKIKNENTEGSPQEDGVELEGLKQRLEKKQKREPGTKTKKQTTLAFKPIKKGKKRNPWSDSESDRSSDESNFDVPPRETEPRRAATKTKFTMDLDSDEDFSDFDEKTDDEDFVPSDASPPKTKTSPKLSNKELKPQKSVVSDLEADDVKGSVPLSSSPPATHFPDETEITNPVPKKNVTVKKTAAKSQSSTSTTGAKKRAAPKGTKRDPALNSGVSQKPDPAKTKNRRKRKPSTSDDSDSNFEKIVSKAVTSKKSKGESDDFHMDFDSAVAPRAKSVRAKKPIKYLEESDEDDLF

For `CC[C@]1(O)c2cc3n(c(=O)c2CO[C@H]1F)Cc1cc2c([N+](=O)[O-])cccc2nc1-3`, the IC50 in the data set on HCT-116 was 1.02 µM; in the data set on A549 [2], 11.3 µM; with MDA-MB-435 it was 53 µM. Moreover, the inhibition entry in data set [1] was “Active”.
For the molecule `CC[C@]1(O)c2cc3n(c(=O)c2CO[C@H]1F)Cc1c-3nc2ccccc2c1C1CCCC1`, the IC50 amounted to 19.8 µM in the data set with HCT-116, 4.14 µM in the data set on A549 [2] and 11.8 µM with MDA-MB-435.
For the molecule `CC[C@]1(O)c2cc3n(c(=O)c2CO[C@H]1F)Cc1cc2cc(OC)ccc2nc1-3`, the values for the IC50 in the data set with HCT-116, in the data set on A549 [2] and in the data set with MDA-MB-435 were 6.15 µM, 41.7 µM and above 100 µM, respectively. Moreover, the inhibition entry in [1] is “Active”.
For the molecule `CC[C@]1(O)c2cc3n(c(=O)c2CO[C@@H]1F)Cc1cc2ccccc2nc1-3` [(20S,21R)-FLUOROCAMPTOTHECIN], the IC50 is 50.9 µM in the data set on HCT-116, 46.2 µM with A549 [2] and above 100 µM with MDA-MB-435. Also, the inhibition entry in [1] is “Active”.
Regarding `CCCc1c2c(nc3ccccc13)-c1cc3c(c(=O)n1C2)CO[C@@H](F)[C@]3(O)CC`, the IC50 came out at 0.82 µM with HCT-116, 2.54 µM with A549 [2] and 2.32 µM in the data set on MDA-MB-435.
On to `CCCCc1c2c(nc3ccccc13)-c1cc3c(c(=O)n1C2)CO[C@@H](F)[C@]3(O)CC`, for which the IC50 with HCT-116 was found to be 0.27 µM; in the data set on A549 [2], 17.7 µM; with MDA-MB-435, 3.53 µM. In addition, in data set [1], the inhibition result was “Active”.
For the molecule `CCc1c2c(nc3ccccc13)-c1cc3c(c(=O)n1C2)CO[C@@H](F)[C@]3(O)CC`, the IC50 with HCT-116 turned out to be 8.53 µM; in the data set on A549 [2], 12.7 µM; with MDA-MB-435, 10.9 µM.
Take `CC[C@]1(O)c2cc3n(c(=O)c2CO[C@H]1F)Cc1c-3nc2ccccc2c1C1CCC1`: the IC50 with HCT-116 is 95.4 µM; in the data set on A549 [2] it was 1 µM; in the data set on MDA-MB-435, 15.8 µM.
For `CC[C@]1(O)c2cc3n(c(=O)c2CO[C@H]1F)Cc1c-3nc2ccccc2c1C`, the IC50 came to 1.46 µM in the data set on HCT-116, 4.23 µM in the data set with A549 [2] and 8.66 µM with MDA-MB-435.
As to `CC[C@@]1(O)C(=O)OCc2c1cc1n(c2=O)Cc2cc3ccccc3nc2-1` [CAMPTOTHECIN], the IC50 in the data set on HCT-116 is 0.07 µM; in the data set with A549 [2] it was 0.65 µM; with MDA-MB-435 it was below 0.001 µM. Further, the remaining at 6 h in data set [3] stood at 42.7%.
As to `CC[C@]1(O)c2cc3n(c(=O)c2CO[C@H]1F)Cc1cc2ccccc2nc1-3` [(20S,21S)-FLUOROCAMPTOTHECIN], the values for the IC50 in the data set with HCT-116, with A549 [2] and in the data set with MDA-MB-435 were 6.35 µM, 9.95 µM and 58.3 µM, respectively. Besides, the inhibition result in data set [1] was “Active”. In data set [3], the remaining at 6 h worked out at 96%.
As for `CC[C@]1(O)c2cc3n(c(=O)c2CO[C@H]1F)Cc1c-3nc2ccccc2c1C1CC1`, the values for the IC50 in the data set on HCT-116, in the data set with A549 [2] and with MDA-MB-435 were 3.39 µM, 15.5 µM and 9.41 µM, respectively.
For the molecule `CCc1c2c(nc3ccc(OC)cc13)-c1cc3c(c(=O)n1C2)CO[C@@H](F)[C@]3(O)CC`, the IC50 in the data set on HCT-116 amounted to 1.45 µM; with A549 [2], 6.35 µM; in the data set on MDA-MB-435, 12.7 µM.
Take `CC[C@]1(O)c2cc3n(c(=O)c2CO[C@H]1F)Cc1c-3nc2ccccc2c1C1CCCCC1` [(20S,21S)-7-CYCLOHEXYLFLUOROCAMPTOTHECIN]: the inhibition in vivo at 2 mg/kg in the data set on A549 [4] is 34%. Besides, the outcome with A549 [5], in the data set with A549 [6] and in the data set on A549 [13] was Active. The TGI result in the data set with A549 [7] was “Dose-dependent effect”. Also, the concentration for half-maximal inhibition (IC50) came out at 0.07 µM in the data set on HCT-116, 0.71 µM with A549 [2] and 0.41 µM in the data set with MDA-MB-435. Moreover, in data set [1], the inhibition entry is “Active”. Moreover, the inhibition entry in [8] and in data set [10] was “inactive” in each case. Further, the results for the Activity in the data set with A549 [9] and in the data set on Mus musculus were 94.11% and “Non-toxic”, respectively. For the same molecule, the inhibition in vivo at 4 mg/kg in the data set with A549 [11] was 63%. For the same molecule, the Stability result in data set [12] is “Stable”.
As to `CC[C@]1(O)c2cc3n(c(=O)c2CO[C@H]1F)Cc1c-3nc2ccccc2c1C(C)C`, the values for the IC50 in the data set with HCT-116, with A549 [2] and in the data set on MDA-MB-435 were 65.7 µM, above 100 µM and 41.1 µM, respectively.
Consider `CC[C@@]1(O)C(=O)OCc2c1cc1n(c2=O)Cc2cc3c(CN(C)C)c(O)ccc3nc2-1` [TOPOTECAN], for which, in the data set on A549 [14], the TGI entry was “Active”. The Activity result in the data set with Mus musculus was “Toxic”.

Values taken from ChEMBL document CHEMBL2434902, “A new strategy to improve the metabolic stability of lactone: discovery of (20S,21S)-21-fluorocamptothecins as novel, hydrolytically stable topoisomerase I inhibitors” (J Med Chem, 2013).
